Values of other authors in patent EP2502493B1, “Novel alpha-galactosidases” (Velico Medical, Inc., priority 2005, dated 2007).

Tested on: α-galactosidase from the marine bacterium Pseudoalteromonas spp. (KMM 701)
Details: isolated enzyme preparation, purified to 9.8U/mg; monosaccharide substrate pNP-Gal; read-out: apparent Km for pNP-Gal

O=[N+]([O-])c1ccc(O[C@H]2O[C@H](CO)[C@H](O)[C@H](O)[C@H]2O)cc1 [pNP-Gal, p-nitrophenyl α-D-Gal]
Km: 290 µM
